Several values for one entry are separate records, joined by “and”; a condition that tells them apart may be missing. Identical values can stand only once. Inconclusive results and toxic doses are left out. Rule as the data show it: active = T/C of 150% or more; inactive = T/C below 125%.
Tested on: L1210 leukemia ip in BDF1 mice, survival T/C
Test: NCI In Vivo Anticancer Drug Screen. Data for tumor model L1210 Leukemia (intraperitoneal) in B6D2F1 (BDF1) mice
Conditions: endpoint: mean survival time, higher = longer survival
Procedure, shortened: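 Transplantable tumor model; survival measured in treated vs vehicle control mice. Value = treated/control.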

[1] = dose: 50.0 mg/kg/injection, schedule: Q01DX009 (ip), vehicle: Klucel (hydroxypropylcellulose) (HPC)
[2] = dose: 100.0 mg/kg/injection, schedule: Q01DX009 (ip), vehicle: Klucel (hydroxypropylcellulose) (HPC)
[3] = dose: 200.0 mg/kg/injection, schedule: Q01DX009 (ip), vehicle: Klucel (hydroxypropylcellulose) (HPC)
[4] = dose: 100.0 mg/kg/injection, schedule: Q01DX009 (ip), vehicle: saline with Tween-80
[5] = dose: 100.0 mg/kg/injection, schedule: Q04DX002 (ip), vehicle: saline with Tween-80
[6] = dose: 200.0 mg/kg/injection, schedule: Q01DX009 (ip), vehicle: saline with Tween-80
[7] = dose: 100.0 mg/kg/injection, schedule: Q04DX002 (ip), vehicle: Klucel (hydroxypropylcellulose) (HPC)
[8] = dose: 200.0 mg/kg/injection, schedule: Q04DX002 (ip), vehicle: Klucel (hydroxypropylcellulose) (HPC)
[9] = dose: 400.0 mg/kg/injection, schedule: Q04DX002 (ip), vehicle: Klucel (hydroxypropylcellulose) (HPC)
[10] = dose: 100.0 mg/kg/injection, schedule: Q04DX003 (ip), vehicle: saline with Tween-80
[11] = dose: 200.0 mg/kg/injection, schedule: Q04DX003 (ip), vehicle: saline with Tween-80
[12] = dose: 400.0 mg/kg/injection, schedule: Q04DX003 (ip), vehicle: saline with Tween-80
[13] = dose: 400.0 mg/kg/injection, schedule: Q01DX009 (ip), vehicle: Klucel (hydroxypropylcellulose) (HPC)
[14] = dose: 100.0 mg/kg/injection, schedule: Q04DX003 (ip), vehicle: Klucel (hydroxypropylcellulose) (HPC)
[15] = dose: 200.0 mg/kg/injection, schedule: Q04DX003 (ip), vehicle: Klucel (hydroxypropylcellulose) (HPC)
[16] = dose: 400.0 mg/kg/injection, schedule: Q04DX003 (ip), vehicle: Klucel (hydroxypropylcellulose) (HPC)
[17] = dose: 100.0 mg/kg/injection, schedule: Q01DX001 (ip), vehicle: other

Measured: T/C

CCCCNC1=C(N2CC2)C(=O)C(NCCCC)=C(N2CC2)C1=O
inactive: dose: 1.25 mg/kg/injection, schedule: Q01DX001 (ip), vehicle: saline 105 % of control | dose: 1.25 mg/kg/injection, schedule: Q01DX009 (ip), vehicle: saline 110 % of control and 111 % of control | dose: 1.56 mg/kg/injection, schedule: Q04DX003 (ip), vehicle: Klucel (hydroxypropylcellulose) (HPC) 113 % of control | dose: 2.5 mg/kg/injection, schedule: Q01DX001 (ip), vehicle: saline 100 % of control | dose: 2.5 mg/kg/injection, schedule: Q01DX009 (ip), vehicle: saline 105 % of control and 109 % of control | dose: 3.12 mg/kg/injection, schedule: Q04DX003 (ip), vehicle: Klucel (hydroxypropylcellulose) (HPC) 121 % of control | dose: 5.0 mg/kg/injection, schedule: Q01DX001 (ip), vehicle: saline 98 % of control | dose: 5.0 mg/kg/injection, schedule: Q01DX009 (ip), vehicle: saline 118 % of control | dose: 10.0 mg/kg/injection, schedule: Q01DX001 (ip), vehicle: saline 105 % of control | dose: 10.0 mg/kg/injection, schedule: Q01DX009 (ip), vehicle: saline 114 % of control | dose: 12.5 mg/kg/injection, schedule: Q04DX003 (ip), vehicle: Klucel (hydroxypropylcellulose) (HPC) 110 % of control | dose: 18.0 mg/kg/injection, schedule: Q04DX003 (ip), vehicle: Klucel (hydroxypropylcellulose) (HPC) 112 % of control

O=c1[nH]c2ccc(Cl)cc2c2nc3ccccc3n12
inactive: [1] 107 % of control | [2] 101 % of control | [3] 92 % of control

O=C(COc1cc(Cl)c(Cl)cc1Cl)Nc1cccc2c1C(=O)c1ccccc1C2=O
inactive: dose: 75.0 mg/kg/injection, schedule: Q04DX002 (ip), vehicle: Klucel (hydroxypropylcellulose) (HPC) 98 % of control | dose: 150.0 mg/kg/injection, schedule: Q04DX002 (ip), vehicle: Klucel (hydroxypropylcellulose) (HPC) 103 % of control | dose: 300.0 mg/kg/injection, schedule: Q04DX002 (ip), vehicle: Klucel (hydroxypropylcellulose) (HPC) 103 % of control

CN(C)c1ccc(-c2cc(C(=O)O)c3cc4ccccc4cc3n2)cc1
inactive: dose: 50.0 mg/kg/injection, schedule: Q01DX009 (ip), vehicle: saline with Tween-80 91 % of control | [4] 96 % of control | [5] 92 % of control | [6] 88 % of control | dose: 200.0 mg/kg/injection, schedule: Q04DX002 (ip), vehicle: saline with Tween-80 92 % of control

O=C(NC(=S)Nc1ccc([N+](=O)[O-])cc1Cl)c1ccccc1F
inactive: [7] 91 % of control | [8] 105 % of control | [9] 105 % of control

CC(C)N(C(=O)c1ccc(C(=O)N(c2ccccc2)C(C)C)cc1)c1ccccc1
inactive: [4] 92 % of control | [10] 100 % of control | [6] 90 % of control | [11] 94 % of control | dose: 400.0 mg/kg/injection, schedule: Q01DX009 (ip), vehicle: saline with Tween-80 86 % of control | [12] 87 % of control

COC1/C=C/OC2(C)Oc3c(C)c(O)c4c(O)c(c(/C=N/N5C(C)CN(Cc6ccc(C)cc6)CC5C)c(O)c4c3C2=O)NC(=O)C(C)=C/C=C/C(C)C(O)C(C)C(O)C(C)C(OC(C)=O)C1C (stereo unspecified)
inactive: [4] 94 % of control

CC(=Nc1ccc(Br)cc1)c1c(O)cc(C)oc1=O
inactive: [2] 100 % of control | [3] 91 % of control | [13] 117 % of control

CCCCOP(=S)(Cc1ccccc1)OCCCC
inactive: [2] 104 % of control | [3] 104 % of control | [13] 104 % of control

O=[N+]([O-])c1ccc(-c2nc3c(o2)CCC3)cc1
inactive: [10] 98 % of control | [11] 105 % of control | [12] 96 % of control

O=C(NN=c1c2ccccc2sc2ccccc12)c1cccc2ccccc12
inactive: dose: 100.0 mg/kg/injection, schedule: Q01DX001 (ip), vehicle: saline 103 % of control | dose: 200.0 mg/kg/injection, schedule: Q01DX001 (ip), vehicle: saline 105 % of control | dose: 400.0 mg/kg/injection, schedule: Q01DX001 (ip), vehicle: saline 97 % of control

CCCCCCCCCCCCNC(=O)C[N+](C)(C)Cc1ccc2c(c1)CCCC2
inactive: dose: 2.5 mg/kg/injection, schedule: Q01DX009 (ip), vehicle: saline with Tween-80 106 % of control | dose: 5.0 mg/kg/injection, schedule: Q01DX009 (ip), vehicle: saline with Tween-80 94 % of control

COc1cc(/C=C2\CCOC2=O)cc(/C=C2\CCOC2=O)c1O
inactive: [5] 89 % of control

c1ccc(C(c2ccccc2)c2ccccn2)cc1
inactive: dose: 50.0 mg/kg/injection, schedule: Q04DX002 (ip), vehicle: other 95 % of control | [7] 98 % of control | dose: 100.0 mg/kg/injection, schedule: Q04DX002 (ip), vehicle: other 95 % of control | dose: 100.0 mg/kg/injection, schedule: Q04DX003 (ip), vehicle: other 103 % of control | [8] 102 % of control | dose: 200.0 mg/kg/injection, schedule: Q04DX002 (ip), vehicle: other 95 % of control | dose: 200.0 mg/kg/injection, schedule: Q04DX003 (ip), vehicle: other 117 % of control | [9] 106 % of control | dose: 400.0 mg/kg/injection, schedule: Q04DX003 (ip), vehicle: other 111 % of control

O=C(O)C(Cc1cc(I)c(O)c(I)c1)c1ccccc1 (stereo unspecified)
inactive: [1] 98 % of control | [2] 97 % of control | [14] 100 % of control | [3] 101 % of control | [15] 100 % of control

CC(=O)c1cccc(NC(=O)Nc2ccccc2)c1
inactive: [2] 94 % of control | [14] 100 % of control | [3] 98 % of control | [15] 96 % of control | [13] 100 % of control | [16] 97 % of control

O=C(O)/C(=C\CCCCC/C=C(\CCO)C(=O)O)CCO
inactive: [2] 100 % of control | [14] 98 % of control | [3] 96 % of control | [15] 100 % of control | [13] 99 % of control | [16] 91 % of control

O=C(O)c1ccc2c(c1)Sc1ccccc1N2
inactive: [14] 95 % of control | [15] 95 % of control

Cc1ccc2c(c1)C=C/C(=C/c1cc[n+](C)c3ccccc13)N2C
inactive: [17] 97 % of control | dose: 200.0 mg/kg/injection, schedule: Q01DX001 (ip), vehicle: other 92 % of control

O=C1C=CC(=O)c2c1ccc1ccccc21
inactive: dose: 12.5 mg/kg/injection, schedule: Q04DX003 (ip), vehicle: saline 102 % of control | dose: 25.0 mg/kg/injection, schedule: Q04DX003 (ip), vehicle: saline 96 % of control | dose: 50.0 mg/kg/injection, schedule: Q04DX003 (ip), vehicle: saline 101 % of control

CC(C)=CCCOC(N)=O
inactive: [10] 104 % of control | [11] 102 % of control | [12] 98 % of control

Cc1ccc(CCNc2ncnc(Cl)c2N)cc1
inactive: dose: 50.0 mg/kg/injection, schedule: Q01DX001 (ip), vehicle: other 88 % of control | [17] 92 % of control

From PubChem BioAssay AID248 (DTP/NCI, 2004)
